Laboratory results from article PMC2832019, “In Vitro Metabolic and Mitogenic Signaling of Insulin Glargine and Its Metabolites” (PLoS ONE, 2010).

What was measured:
primary rat adipocytes = experiment: Metabolic activity: insulin-stimulated lipid synthesis in primary rat adipocytes; format: cell-based, rat (Sprague-Dawley); conditions: for EC50: incorporation of [3-^3H]glucose into toluene-extractable lipids, 90 min at 37°C, pH 7.4, means ± SEM, five different adipocyte preparations, read-out: Metabolic potency EC50; for lipid synthesis EC50 higher relative to human insulin: fold higher EC50 relative to insulin; for metabolic activity, EC50 lower than M1: relative to M1
Experimental: The metabolic activity of the different insulins was compared using insulin-stimulated lipid synthesis in primary rat adipocytes. Primary rat adipocytes were prepared according to published procedures, [33]. Briefly, rats (Sprague-Dawley, male, 140–160 g, fed ad libitum) were provided from Charles-River (Sulzfeld, Germany) and killed by cervical dislocation in accordance with the German animal protection law. The animals were used for the preparation of primary adipocytes, exclusively, and were not subjected to any pretreatment, such as drug administration or starvation. Epididymal fat pads were rapidly removed, stripped of blood vessels and placed in PBS. Subsequently, the pads were washed with KRBB bubbled with 5% O2/95% CO2. Each pad was then cut into two or three pieces. Two pieces of each were incubated with 1.5 mL of digestion buffer (10 mg collagenase [Worthington Inc., CLS, type I, 190 units/mg] in 10 ml of KRBB containing 9 mg glucose) for 15–30 min at 37°C in a shaking water bath (240 cycles/min). Released adipocytes were separated from residual undigested tissue by passage through a nylon web (mesh size 150 µm) and washed by flotation in a plastic tube two or three times with KRBB and adjusted to the appropriate titer of 3.5×10^5 cells/mL. For distribution of the adipocytes, 200 µL of the suspension was removed under continuous gentle stirring with a plastic agitator.
Lipid synthesis was measured as the incorporation of [3-^3H]glucose into toluene-extractable lipids, at a final cell titer of […] in KRBB (1.2 mM KH2PO4, 1.2 mM MgSO4, 4.8 mM KCl, 25 mM NaHCO3, 120 mM NaCl, 2.4 mM CaCl2, containing 1% BSA [defatted, fraction V, Sigma, Deisenhofen, Germany] and 37 µM glucose and adjusted to pH 7.4) according to published procedures (Müller et al., 2008) with the following modifications: 680 µL of KRBB were filled into 10-mL scintillation vials and supplemented with 100 µL of D-[3-^3H]glucose (2 µCi/mL KRBB, 1 mM, Amersham-Buchler, Braunschweig, Germany) and 20 µL of insulin solution in KRBB. Lipid synthesis was started by the addition of 200 µL of adipocyte suspension in KRBB. After incubation for 90 min at 37°C under an atmosphere of 5% O2/95% CO2 and gentle shaking, 10 mL of toluene-based scintillation cocktail (Quickszint 501, Zinsser, Germany) was added. The samples were vigorously mixed and after phase separation (2 to 4 h) measured for radioactivity by liquid scintillation counting. Determination of the radioactivity contained in the toluene phase and corrected for non-specific spill-over of the radioactivity of unincorporated radiolabelled glucose contained in the water phase predominantly reflects the de novo lipid synthesis.
(§1) For each experiment, IC50 or EC50 values were obtained using the 4-parameter logistic model according to Ratkowsky and Reedy (1986). The adjustment was obtained by non-linear regression using the Levenberg-Marquardt algorithm in SAS v9.1.3 software via Biost@t-Speed V2.0-LTS internal application. If necessary, lower and upper asymptotes were set to 0 and 100, respectively.
Figure 3 Metabolic activity of insulin glargine and its metabolites in rat adipocytes. To compare the metabolic activity of glargine and its metabolites insulin-stimulated lipid synthesis in isolated primary rat adipocytes was analyzed by incorporation of [3-^3H]glucose into toluene-extractable lipids and subsequent measurement of radioactivity by liquid scintillation counting. The adipocytes were treated with increasing concentrations of insulin, analogs, metabolites or IGF-1 for 90 min at 37°C in the presence of [3-^3H]glucose. Each point represents the mean ± SEM of five different adipocyte preparations with activity measurements done in duplicate.

human IR-B = experiment: Competitive receptor binding (SPA), IR-B; conditions: for IC50: SPA, WGA PVT PEI beads, 2 µg membranes from CHO cells overexpressing IR-B, 100 pmol/L A14[^125I]-insulin, pH 7.8, 12 h, 23°C, means ± SEM, at least three times, read-out: IR-B affinity IC50; for IR-B binding, less active than human insulin: decrease relative to human insulin
Experimental: The binding of the different insulins to the human IR-A and IR-B was analyzed in a competitive binding assay using the scintillation proximity assay as previously described, [30]. […] Briefly, cells were grown to confluence and gently detached, transferred to a centrifugation tube followed by centrifugation for 10 minutes at 600×g at 4°C. The pellet was resuspended in ice-cold 2.25 STM buffer (2.25 mol/L sucrose, 5 mmol/L Tris-HCl pH 7.4, 5 mmol/L MgCl2, 1x Complete Protease Inhibitor) and disrupted using a hand-held Dounce homogenizer followed by sonication. This homogenate was transferred to a centrifugation tube, overlaid with 0.8 STM buffer (0.8 mol/L sucrose, 5 mmol/L Tris-HCl pH 7.4, 5 mmol/L MgCl2, 1x Complete Protease Inhibitor) and centrifuged for 90 minutes at 100 000×g at 4°C. The emerging pellicle at the interface was collected, transferred to a new tube and washed two times with PBS by centrifugation for 10 minutes at 1500×g. The final pellet was resuspended in a small volume of dilution buffer (50 mmol/L Tris-HCl pH 7.4, 5 mmol/L MgCl2, 1x Complete Protease Inhibitor) and homogenized with a Dounce homogenizer. These plasma membrane preparations were stored until usage at –80°C.
Binding experiments were conducted in 96-well microplates. Per well 2 µg of membranes were incubated with 0.25 mg wheat germ agglutinin polyvinyltoluene polyethylenimine SPA beads, 100 pmol/L A14[^125I]-insulin and various concentrations of unlabeled insulins in a binding buffer containing 0.05 mol/L Tris-HCl pH 7.8, 0.15 mol/L NaCl, 0.1% BSA, Complete Protease Inhibitor for 12 hours at room temperature (23°C). The radioactivity was measured at equilibrium in a microplate scintillation counter (Wallac Microbeta, Freiburg, Germany).
as §1
The binding of a constant concentration of [^125I]insulin to plasma membranes from CHO cells overexpressing either IR-A or IR-B was measured in presence of increasing concentrations of unlabeled competing ligand after incubation at room temperature for 12 h. All data has been corrected for non-specific binding and are expressed as percentage of [^125I]insulin in absence of competing ligand. To analyze the insulin-stimulated activation and subsequent autophosphorylation of the insulin receptor CHO cells overexpressing the human IR-A (C) or IR-B (D) were stimulated for 15 min at 37°C with increasing concentrations of peptides, then the cells were fixed with 3.7% PFA and the amount of phosphotyrosines was analyzed via In-Cell Western. The data represent mean values ± SEM of at least 3 individual experiments measured in quadruplicate.

| Substance | EC50 (primary rat adipocytes) [nM] | IR-B affinity less potent than human insulin (human IR-B; IR-B, relative to human insulin) [fold] | IC50 (human IR-B) [nM] | lipid synthesis EC50 higher relative to human insulin (primary rat adipocytes) [fold] | IR-B binding, more potent relative to human insulin (human IR-B; relative to human insulin) [fold] | IR-B binding, less active than human insulin (human IR-B) | metabolic activity, EC50 lower than M1 (primary rat adipocytes) [fold] |
| --- | --- | --- | --- | --- | --- | --- | --- |
| Human insulin: human insulin produced by recombinant DNA techniques or enzymatic semisynthesis | 0.045 ± 0.003 | – | – | – | – | – | – |
| IGF-1: IGF-1 obtained from R&D Systems and Cell Sciences | 19 ± 0.93 | ~300 | 171 ± 50 | 422 | – | – | – |
| [Asp^B10]insulin | 0.031 ± 0.005 | – | 0.21 ± 0.03 | – | 2.7 | – | – |
| [Gly^A21,Arg^B31,Arg^B32]insulin [Glargine] | 0.066 ± 0.005 | – | 1.1 ± 0.12 | 1.4 | – | 40–50% | – |
| [Gly^A21,Arg^B31]insulin [Glargine IM] | 0.098 ± 0.012 | – | 1.08 ± 0.06 | – | – | 40–50% | 0.6 |
| [Gly^A21,des-Thr^B30]insulin [Glargine M2] | 0.087 ± 0.007 | – | 1.09 ± 0.06 | – | – | 40–50% | 0.6 |
| [Gly^A21]insulin [Glargine M1] | 0.139 ± 0.009 | – | 1.35 ± 0.2 | 3.0 | – | 40–50% | – |
